# Results as given in patent US20100144854A1 (priority 2007, published 2010).
# How the values were obtained:
# renal cell carcinoma = assay: Example 2: patient with renal cell carcinoma and lung formations treated with rhodamine 6G; format: in vivo, human; details: Patient L, 43
# Protocol: Three years previously the left kidney was removed and prophylactic chemotherapy was carried out to treat renal cell carcinoma. […] Severe dyspnea, diagnosis adynamia. Treatment was prescribed, including the use of a medicinal preparation having an anti-tumor action. […] After 4 weeks the dyspnea and pain had decreased. Blood analyses against the treatment background normalised over 3 months. A repeat course of treatment with the preparation was then prescribed, which was administered rectally in the form of a 1% suppository and also by inhalation for 6 months. Over the course of the treatment the tumor in the right kidney and the metastases in the lungs disappeared.
# [1] = tested on: Primary cancer of the liver; assay: Example 5: patient with primary liver cancer treated with rhodamine 6G; format: in vivo, human; design: Nuclear segments / Erythrocytes / Hemoglobin / Thrombocytes / Leukocytes / Amylase / Chlorine / Serum iron / Cholesterol / Total bilirubin / Bilirubin (line r8, above 'direct'): unit not given here; details: for Creatinine / Cholesterol / Total bilirubin / Potassium / ALT / AST / Bilirubin (line r8, above 'direct') / Serum iron / Total protein / Amylase / Chlorine / LDG / Bilirubin (line r10, above 'indirect') / direct (line r9) / indirect (line r11) / Phosphatase, alk. / Erythrocytes / Hemoglobin / Leukocytes / Thrombocytes / Basophils / Eosinophils / Nuclear rods / ESR / Monocytes / Lymphocytes / Nuclear segments: Example 5, Patient L; for Cholesterol: normal 1.66-8.3; for Total bilirubin: normal 2.90-6.54; for Potassium: normal 3.5-6.0; for ALT / AST: normal 5-40; for Bilirubin (line r8, above 'direct'): normal 8.5-20.5; for Serum iron: normal 8.8-27.0; for Total protein: normal 65.0-85.0; for Amylase: normal 95-110.0; for Chlorine: normal 135.0-; for LDG: normal 225-450; for Bilirubin (line r10, above 'indirect') / direct (line r9): normal up to 25%; for indirect (line r11): normal up to 100; for Phosphatase, alk.: normal up to 104; for Basophils: normal 0-1%; for Eosinophils: normal 0-5; for Nuclear rods: normal 1-6%; for ESR: normal 1-15 mm/hr; for Monocytes: normal 2-9%; for Lymphocytes: normal 18-40%; for Nuclear segments: normal 45-70
# Protocol: Patient […]. Diagnosis: Primary cancer of the liver. One and a half years before, resection of part of the right hepatic lobe on account of liver cell carcinoma. Patient complained of pain in the right hypochondrium, dyspnea, ascites, intermittent retention of stools. Patient's condition moderately severe, loss of appetite, jaundice. […] The patient underwent bougienation of the umbilical vein. […] Subsequent procedures were carried out in exactly the same way twice a week. Only the preparation was administered intravenously. The course of treatment lasted 3 months. During the treatment the tumor in the affected region decreased in size to 0.5×0.7 cm. After 4 months a connective tissue scar of size 0.2×0.3 cm remained at the site of the tumor in the liver.
substance,measurement,setting,value
"9-(2-ethoxycarbonyl)phenyl)-3,6-bis(ethylamino)2,7-dimethylxanthyl chloride [rhodamine 6G]",dyspnea and pain,"renal cell carcinoma; after 4 weeks, 12 drops 1% solution oral three times a day and microenema",decreased
same,body weight,renal cell carcinoma; after treatment,regained weight
same,blood analyses against the treatment background,renal cell carcinoma; over 3 months,normalised
same,tumor in the kidney and metastases in the lungs,"renal cell carcinoma; over the course of treatment, before: mass 3.5×5.4×3.7 cm, four lung formations 2.0-2.3 cm",disappeared
same,Creatinine,[1]; 04 Feb. 2005,79 µM
same,Cholesterol,[1]; 04 Feb. 2005,5.75
same,Total bilirubin,[1]; 04 Feb. 2005,8.4
same,Potassium,[1]; 04 Feb. 2005,2.28
same,ALT,[1]; 04 Feb. 2005,154.2 el
same,AST,[1]; 04 Feb. 2005,103.8 el
same,"Bilirubin (line r8, above 'direct')",[1]; 04 Feb. 2005,3.3
same,Serum iron,[1]; 04 Feb. 2005,94.4
same,Total protein,[1]; 04 Feb. 2005,78
same,Amylase,[1]; 04 Feb. 2005,102.8
same,Chlorine,[1]; 04 Feb. 2005,114.31
same,LDG,[1]; 04 Feb. 2005,332 el
same,"Bilirubin (line r10, above 'indirect')",[1]; 04 Feb. 2005,84%
same,direct (line r9),[1]; 04 Feb. 2005,5.1%
same,indirect (line r11),[1]; 04 Feb. 2005,89 el
same,"Phosphatase, alk.",[1]; 04 Feb. 2005,4.55 el
same,Creatinine,[1]; 07 Apr. 2005,67 µM
same,Cholesterol,[1]; 07 Apr. 2005,7.03
same,Total bilirubin,[1]; 07 Apr. 2005,8.0
same,Potassium,[1]; 07 Apr. 2005,2.15
same,ALT,[1]; 07 Apr. 2005,40 el
same,AST,[1]; 07 Apr. 2005,30.4 el
same,"Bilirubin (line r8, above 'direct')",[1]; 07 Apr. 2005,2.0
same,Serum iron,[1]; 07 Apr. 2005,43.7
same,Total protein,[1]; 07 Apr. 2005,64.34
same,Amylase,[1]; 07 Apr. 2005,110.0
same,Chlorine,[1]; 07 Apr. 2005,134.2
same,LDG,[1]; 07 Apr. 2005,362 el
same,"Bilirubin (line r10, above 'indirect')",[1]; 07 Apr. 2005,90%
same,direct (line r9),[1]; 07 Apr. 2005,6.0%
same,indirect (line r11),[1]; 07 Apr. 2005,78.0 el
same,"Phosphatase, alk.",[1]; 07 Apr. 2005,6.7 el
same,Creatinine,[1]; 10 Nov. 2004,98 µM
same,Cholesterol,[1]; 10 Nov. 2004,6.21
same,Total bilirubin,[1]; 10 Nov. 2004,11.0
same,Potassium,[1]; 10 Nov. 2004,2.72
same,ALT,[1]; 10 Nov. 2004,665.8 el
same,AST,[1]; 10 Nov. 2004,554.5 el
same,"Bilirubin (line r8, above 'direct')",[1]; 10 Nov. 2004,3.0
same,Serum iron,[1]; 10 Nov. 2004,190.4
same,Total protein,[1]; 10 Nov. 2004,43.43
same,Amylase,[1]; 10 Nov. 2004,114.0
same,Chlorine,[1]; 10 Nov. 2004,114.20
same,LDG,[1]; 10 Nov. 2004,879 el
same,"Bilirubin (line r10, above 'indirect')",[1]; 10 Nov. 2004,82%
same,direct (line r9),[1]; 10 Nov. 2004,8.0%
same,indirect (line r11),[1]; 10 Nov. 2004,107.2 el
same,"Phosphatase, alk.",[1]; 10 Nov. 2004,5.71 el
same,Erythrocytes,[1]; 12 Nov. 2004,3.22
same,Hemoglobin,[1]; 12 Nov. 2004,74
same,Leukocytes,[1]; 12 Nov. 2004,7.2
same,Thrombocytes,[1]; 12 Nov. 2004,315
same,Basophils,[1]; 12 Nov. 2004,1%
same,Eosinophils,[1]; 12 Nov. 2004,1
same,Nuclear rods,[1]; 12 Nov. 2004,1%
same,ESR,[1]; 12 Nov. 2004,3.5 mm/hr
same,Monocytes,[1]; 12 Nov. 2004,15%
same,Lymphocytes,[1]; 12 Nov. 2004,9%
same,Nuclear segments,[1]; 12 Nov. 2004,21
same,Erythrocytes,[1]; 14 Feb. 2005,4.37
same,Hemoglobin,[1]; 14 Feb. 2005,117
same,Leukocytes,[1]; 14 Feb. 2005,5.8
same,Thrombocytes,[1]; 14 Feb. 2005,286
same,Eosinophils,[1]; 14 Feb. 2005,2
same,Monocytes,[1]; 14 Feb. 2005,4%
same,Lymphocytes,[1]; 14 Feb. 2005,23%
same,Nuclear segments,[1]; 14 Feb. 2005,63
same,Erythrocytes,[1]; 17 Apr. 2006,4.67
same,Hemoglobin,[1]; 17 Apr. 2006,123
same,Leukocytes,[1]; 17 Apr. 2006,6.7
same,Thrombocytes,[1]; 17 Apr. 2006,310
same,Basophils,[1]; 17 Apr. 2006,1%
same,Eosinophils,[1]; 17 Apr. 2006,1
same,ESR,[1]; 17 Apr. 2006,8.5 mm/hr
same,Monocytes,[1]; 17 Apr. 2006,9%
same,Lymphocytes,[1]; 17 Apr. 2006,37%
same,Nuclear segments,[1]; 17 Apr. 2006,65
same,Erythrocytes,[1]; 19 Jan. 2005,3.60
same,Hemoglobin,[1]; 19 Jan. 2005,80
same,Leukocytes,[1]; 19 Jan. 2005,7.8
same,Thrombocytes,[1]; 19 Jan. 2005,362
same,Eosinophils,[1]; 19 Jan. 2005,2
same,Nuclear rods,[1]; 19 Jan. 2005,1%
same,Monocytes,[1]; 19 Jan. 2005,4.3%
same,Lymphocytes,[1]; 19 Jan. 2005,16%
same,Nuclear segments,[1]; 19 Jan. 2005,44
same,Creatinine,[1]; 20 Dec. 2005,83 µM
same,Cholesterol,[1]; 20 Dec. 2005,5.62
same,Total bilirubin,[1]; 20 Dec. 2005,24.2
same,Potassium,[1]; 20 Dec. 2005,2.32
same,ALT,[1]; 20 Dec. 2005,426 el
same,AST,[1]; 20 Dec. 2005,432.9 el
same,"Bilirubin (line r8, above 'direct')",[1]; 20 Dec. 2005,22.3
same,Serum iron,[1]; 20 Dec. 2005,224.7
same,Total protein,[1]; 20 Dec. 2005,49.90
same,Amylase,[1]; 20 Dec. 2005,140
same,Chlorine,[1]; 20 Dec. 2005,115.3
same,LDG,[1]; 20 Dec. 2005,556 el
same,"Bilirubin (line r10, above 'indirect')",[1]; 20 Dec. 2005,96%
same,direct (line r9),[1]; 20 Dec. 2005,11.9%
same,indirect (line r11),[1]; 20 Dec. 2005,102 el
same,"Phosphatase, alk.",[1]; 20 Dec. 2005,5.48 el
same,patient's complaints,"[1]; Patient L, 64, at the present time",no complaints
same,blood analyses,"[1]; Patient L, 64, during treatment",positive change
